Patent US9708314B2, “Heterocyclic amide compound” (NISSAN CHEMICAL INDUSTRIES, LTD., priority 2013, dated 2017)

Columns and labels:
Type in all cases: in vivo
Leptochloa chinensis = experiment: Test Example 3: herbicidal effect by application to foliage (Wagner pot, water depth 0.1-0.5 cm); details: Nineteenth Table; application to foliage; application herbicide amount 320 g/ha
Outline: (§1)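 Alluvial soil in 1/10000 are Wagner pots, sown and grown 14 days in a 25–30 °C greenhouse. An emulsifiable concentrate diluted in water to the set dose (g/ha) was sprayed on stems and leaves. Effect scored three weeks later on a 0–5 scale: 5 = ≥90% herbicidal ratio, 0 = ≤5%.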

Cyperus difformis = experiment: as above; details: Nineteenth Table; application to foliage; application herbicide amount 320 g/ha
Outline: as §1

[1] = test system: Echinochloa crus-galli var. crus-galli; experiment: as above; details: Nineteenth Table; application to foliage; application herbicide amount 320 g/ha
Outline: as §1

Zea mays = experiment: Test Example 4: effect on crop by application to foliage (diluvial soil, plastic box); details: application to foliage; for c: effect on crop, Zea mays: application herbicide amount 320 g/ha
Outline: (§2)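 Plants were grown in sterilized diluvial soil in a greenhouse at 25-30° C for 14 days, then sprayed on stems and leaves with water-diluted emulsion formulation at set rates in g/ha. Weed control and crop injury were scored 3 weeks after treatment on a 0-5 herbicidal-ratio scale, from 0 (≤5%) to 5 (≥90%).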

Brassica campestris L. = experiment: as above; details: application to foliage; for g: effect on crop, Brassica campestris L.: application herbicide amount 320 g/ha
Outline: as §2

[2] = test system: directly sowed Oryza sativa; experiment: as above; details: application to foliage; for b: effect on crop, directly sowed Oryza sativa: application herbicide amount 320 g/ha
Outline: as §2

Triticum aestivum = experiment: as above; details: application to foliage; for e: effect on crop, Triticum aestivum: application herbicide amount 320 g/ha
Outline: as §2

Glycine max = experiment: as above; details: application to foliage; for d: effect on crop, Glycine max: application herbicide amount 320 g/ha
Outline: as §2

[3] = test system: Beta vulgaris ssp. vulgaris; experiment: as above; details: application to foliage; for f: effect on crop, Beta vulgaris ssp. vulgaris: application herbicide amount 320 g/ha
Outline: as §2

Abutilon theophrasti = experiment: Test Example 4: herbicidal effect by application to foliage (diluvial soil, plastic box); details: application to foliage; for M: herbicidal effect on Abutilon theophrasti: application herbicide amount 320 g/ha
Outline: as §2

Digitaria ciliaris = experiment: as above; details: application to foliage; for F: herbicidal effect on Digitaria ciliaris: application herbicide amount 320 g/ha
Outline: as §2

Setaria viridis = experiment: as above; details: application to foliage; for G: herbicidal effect on Setaria viridis: application herbicide amount 320 g/ha
Outline: as §2

[4] = test system: Echinochloa crus-galli var. crus-galli; experiment: as above; details: application to foliage; for H: herbicidal effect on Echinochloa crus-galli var. crus-galli: application herbicide amount 320 g/ha
Outline: as §2

Apera spica-venti. = experiment: as above; details: application to foliage; for L: herbicidal effect on Apera spica-venti.: application herbicide amount 320 g/ha
Outline: as §2

Amaranthus retroflexus = experiment: as above; details: application to foliage; for N: herbicidal effect on Amaranthus retroflexus: application herbicide amount 320 g/ha
Outline: as §2

Galium spurium = experiment: as above; details: application to foliage; for Q: herbicidal effect on Galium spurium: application herbicide amount 320 g/ha
Outline: as §2

Stellaria media = experiment: as above; details: application to foliage; for P: herbicidal effect on Stellaria media: application herbicide amount 320 g/ha
Outline: as §2

Lolium multiflorum Lam. = experiment: as above; details: application to foliage; for K: herbicidal effect on Lolium multiflorum Lam.: application herbicide amount 320 g/ha
Outline: as §2

Avena fatua = experiment: as above; details: application to foliage; for I: herbicidal effect on Avena fatua: application herbicide amount 320 g/ha
Outline: as §2

Chenopodium album = experiment: as above; details: application to foliage; for O: herbicidal effect on Chenopodium album: application herbicide amount 320 g/ha
Outline: as §2

Alopecurus myosuroides = experiment: as above; details: application to foliage; for J: herbicidal effect on Alopecurus myosuroides: application herbicide amount 320 g/ha
Outline: as §2

Veronica persica = experiment: as above; details: application to foliage; for R: herbicidal effect on Veronica persica: application herbicide amount 320 g/ha
Outline: as §2

| SMILES | D (herbicidal effect grade) (Leptochloa chinensis) | E (herbicidal effect grade) (Cyperus difformis) | H (herbicidal effect grade) [1] | c: effect on crop, Zea mays (Zea mays) | g: effect on crop, Brassica campestris L. (Brassica campestris L.) | b: effect on crop, directly sowed Oryza sativa [2] | e: effect on crop, Triticum aestivum (Triticum aestivum) | d: effect on crop, Glycine max (Glycine max) | f: effect on crop, Beta vulgaris ssp. vulgaris [3] | M: herbicidal effect on Abutilon theophrasti (Abutilon theophrasti) | F: herbicidal effect on Digitaria ciliaris (Digitaria ciliaris) | G: herbicidal effect on Setaria viridis (Setaria viridis) | H: herbicidal effect on Echinochloa crus-galli var. crus-galli [4] | L: herbicidal effect on Apera spica-venti. (Apera spica-venti.) | N: herbicidal effect on Amaranthus retroflexus (Amaranthus retroflexus) | Q: herbicidal effect on Galium spurium (Galium spurium) | P: herbicidal effect on Stellaria media (Stellaria media) | K: herbicidal effect on Lolium multiflorum Lam. (Lolium multiflorum Lam.) | I: herbicidal effect on Avena fatua (Avena fatua) | O: herbicidal effect on Chenopodium album (Chenopodium album) | also measured |
| --- | --- | --- | --- | --- | --- | --- | --- | --- | --- | --- | --- | --- | --- | --- | --- | --- | --- | --- | --- | --- | --- |
| Cc1nnc(NC(=O)c2ccc(C(F)(F)F)n3c(CC(F)(F)F)nnc23)o1 [1-162] | 4 (Herbicidal ratio of 70% or more and less than 90%) | 2 (Herbicidal ratio of 20% or more and less than 40%) | 4 (Herbicidal ratio of 70% or more and less than 90%) | 0 (Herbicidal ratio of 5% or less (almost no effect)) | 1 (Herbicidal ratio of 5% or more and less than 20%) | 0 (Herbicidal ratio of 5% or less (almost no effect)) | 0 (Herbicidal ratio of 5% or less (almost no effect)) | 3 (Herbicidal ratio of 40% or more and less than 70%) | 3 (Herbicidal ratio of 40% or more and less than 70%) | 3 (Herbicidal ratio of 40% or more and less than 70%) | 3 (Herbicidal ratio of 40% or more and less than 70%) | 1 (Herbicidal ratio of 5% or more and less than 20%) | 4 (Herbicidal ratio of 70% or more and less than 90%) | 0 (Herbicidal ratio of 5% or less (almost no effect)) | 4 (Herbicidal ratio of 70% or more and less than 90%) | 2 (Herbicidal ratio of 20% or more and less than 40%) | 3 (Herbicidal ratio of 40% or more and less than 70%) | 1 (Herbicidal ratio of 5% or more and less than 20%) | 1 (Herbicidal ratio of 5% or more and less than 20%) | 4 (Herbicidal ratio of 70% or more and less than 90%) | J: herbicidal effect on Alopecurus myosuroides (Alopecurus myosuroides): 1 (Herbicidal ratio of 5% or more and less than 20%); R: herbicidal effect on Veronica persica (Veronica persica): 3 (Herbicidal ratio of 40% or more and less than 70%) |
| C#CCN(C)c1nnc2c(C(=O)Nc3nnco3)ccc(C(F)(F)F)n12 [1-163] | 5 (Herbicidal ratio of 90% or more (almost completely withered)) | 4 (Herbicidal ratio of 70% or more and less than 90%) | 5 (Herbicidal ratio of 90% or more (almost completely withered)) | 0 (Herbicidal ratio of 5% or less (almost no effect)) | 3 (Herbicidal ratio of 40% or more and less than 70%) | 0 (Herbicidal ratio of 5% or less (almost no effect)) | 1 (Herbicidal ratio of 5% or more and less than 20%) | 4 (Herbicidal ratio of 70% or more and less than 90%) | 4 (Herbicidal ratio of 70% or more and less than 90%) | 4 (Herbicidal ratio of 70% or more and less than 90%) | 4 (Herbicidal ratio of 70% or more and less than 90%) | 3 (Herbicidal ratio of 40% or more and less than 70%) | 5 (Herbicidal ratio of 90% or more (almost completely withered)) | 1 (Herbicidal ratio of 5% or more and less than 20%) | 4 (Herbicidal ratio of 70% or more and less than 90%) | 3 (Herbicidal ratio of 40% or more and less than 70%) | 4 (Herbicidal ratio of 70% or more and less than 90%) | 1 (Herbicidal ratio of 5% or more and less than 20%) | 2 (Herbicidal ratio of 20% or more and less than 40%) | 5 (Herbicidal ratio of 90% or more (almost completely withered)) | J: herbicidal effect on Alopecurus myosuroides (Alopecurus myosuroides): 1 (Herbicidal ratio of 5% or more and less than 20%); R: herbicidal effect on Veronica persica (Veronica persica): 2 (Herbicidal ratio of 20% or more and less than 40%) |
| Cn1nnnc1NC(=O)c1ccc(C(F)(F)F)n2c(SC3CCCC3)nnc12 [2-096] | 0 (Herbicidal ratio of 5% or less (almost no effect)) | 5 (Herbicidal ratio of 90% or more (almost completely withered)) | 0 (Herbicidal ratio of 5% or less (almost no effect)) | – | – | – | – | – | – | – | – | – | – | – | – | – | – | – | – | – | effect on crop, b (Zea mays) (Zea mays; 320 g/ha): 0 (Herbicidal ratio of 5% or less (almost no effect)); effect on crop, g (Brassica campestris L.) (Brassica campestris L.; 320 g/ha): 0 (Herbicidal ratio of 5% or less (almost no effect)); effect on crop, d (directly sowed Oryza sativa) ([2]; 320 g/ha): 3 (Herbicidal ratio of 40% or more and less than 70%); effect on crop, e (Triticum aestivum) (Triticum aestivum; 320 g/ha): 0 (Herbicidal ratio of 5% or less (almost no effect)); effect on crop, c (Glycine max) (Glycine max; 320 g/ha): 0 (Herbicidal ratio of 5% or less (almost no effect)); effect on crop, f (Beta vulgaris ssp. vulgaris) ([3]; 320 g/ha): 5 (Herbicidal ratio of 90% or more (almost completely withered)); herbicidal effect, M (Abutilon theophrasti) (Abutilon theophrasti; 320 g/ha): 5 (Herbicidal ratio of 90% or more (almost completely withered)); herbicidal effect, F (Digitaria ciliaris) (Digitaria ciliaris; 320 g/ha): 5 (Herbicidal ratio of 90% or more (almost completely withered)); herbicidal effect, G (Setaria viridis) (Setaria viridis; 320 g/ha): 4 (Herbicidal ratio of 70% or more and less than 90%); herbicidal effect, H (Echinochloa crus-galli var. crus-galli) ([4]; 320 g/ha): 5 (Herbicidal ratio of 90% or more (almost completely withered)); herbicidal effect, L (Apera spica-venti.) (Apera spica-venti.; 320 g/ha): 0 (Herbicidal ratio of 5% or less (almost no effect)); herbicidal effect, N (Amaranthus retroflexus) (Amaranthus retroflexus; 320 g/ha): 5 (Herbicidal ratio of 90% or more (almost completely withered)); herbicidal effect, Q (Galium spurium) (Galium spurium; 320 g/ha): 3 (Herbicidal ratio of 40% or more and less than 70%); herbicidal effect, P (Stellaria media) (Stellaria media; 320 g/ha): 4 (Herbicidal ratio of 70% or more and less than 90%); herbicidal effect, K (Lolium multiflorum Lam.) (Lolium multiflorum Lam.; 320 g/ha): 0 (Herbicidal ratio of 5% or less (almost no effect)); herbicidal effect, I (Avena fatua) (Avena fatua; 320 g/ha): 1 (Herbicidal ratio of 5% or more and less than 20%); herbicidal effect, O (Chenopodium album) (Chenopodium album; 320 g/ha): 5 (Herbicidal ratio of 90% or more (almost completely withered)); herbicidal effect, J (Alopecurus myosuroides) (Alopecurus myosuroides; 320 g/ha): 0 (Herbicidal ratio of 5% or less (almost no effect)); herbicidal effect, R (Veronica persica) (Veronica persica; 320 g/ha): 3 (Herbicidal ratio of 40% or more and less than 70%) |
